From PubChem BioAssay (NCI)
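GI50: concentration for 50% inhibition of growth. Definition used: TGI = concentration required for complete inhibition of growth.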

Experiments:
Test in all cases: inhibition of tumour cell growth, NCI panel, 384-well format
[1] = system: HL-60(TB) leukemia
[2] = system: UO-31 renal
[3] = system: M14 melanoma
[4] = system: NCI-H226 lung
[5] = system: SR leukemia
[6] = system: SNB-75 CNS
[7] = system: SK-MEL-5 melanoma
[8] = system: 786-0 renal
[9] = system: MDA-MB-435 melanoma
[10] = system: HCT-15 colon
[11] = system: RXF 393 renal
[12] = system: U251 glioblastoma
[13] = system: SN12C renal
[14] = system: PC-3 prostate
[15] = system: LOX IMVI melanoma
[16] = system: MDA-MB-468 breast
[17] = system: SNB-19 CNS
[18] = system: OVCAR-4 ovarian
[19] = system: UACC-257 melanoma
[20] = system: MALME-3M melanoma
[21] = system: DU-145 prostate
[22] = system: HS 578T breast
[23] = system: EKVX NSCLC
[24] = system: OVCAR-3 ovarian
[25] = system: NCI-H522 lung
[26] = system: NCI/ADR-RES ovarian
[27] = system: SK-MEL-28 melanoma
[28] = system: IGROV1 ovarian
[29] = system: NCI-H460 NSCLC
[30] = system: RPMI-8226 leukemia
[31] = system: CCRF-CEM leukemia
[32] = system: A498 renal
[33] = system: A549 NSCLC
[34] = system: TK-10 renal
[35] = system: NCI-H322M lung
[36] = system: MCF7 breast
[37] = system: T-47D breast
[38] = system: ACHN renal
[39] = system: SF-539 CNS
[40] = system: HOP-62 NSCLC
[41] = system: MDA-MB-231 breast
[42] = system: HOP-92 NSCLC
[43] = system: OVCAR-8 ovarian
[44] = system: COLO 205 colon
[45] = system: CAKI-1 renal
[46] = system: UACC-62 melanoma
[47] = system: SK-OV-3 ovarian
[48] = system: KM12 colon
[49] = system: NCI-H23 lung
[50] = system: MOLT-4 leukemia
[51] = system: SF-268 CNS
[52] = system: BT-549 breast
[53] = system: K-562 leukemia
[54] = system: OVCAR-5 ovarian
[55] = system: HT29 colon
[56] = system: SF-295 CNS
[57] = system: HCC-2998 colon
[58] = system: SW-620 colon
[59] = system: SK-MEL-2 melanoma
[60] = system: HCT-116 colon

Structure (SMILES): COc1cc(CCc2cc(NC(=O)c3ccc(N4C[C@@H](C)N[C@@H](C)C4)cc3)n[nH]2)cc(OC)c1
- GI50 [1]: 1.83 µM
- TGI [1]: 3.28 µM
- GI50 [2]: 11.1 µM
- TGI [2]: 23.9 µM
- GI50 [3]: 1710 nM
- TGI [3]: 3.35 µM
- GI50 [4]: 1.49 µM
- TGI [4]: 10.9 µM
- GI50 [5]: 1800 nM
- TGI [5]: 3.21 µM
- GI50 [6]: 4.55 µM
- TGI [6]: 17.1 µM
- GI50 [7]: 1.59 µM
- TGI [7]: 2.95 µM
- GI50 [8]: 3.07 µM
- TGI [8]: 9.35 µM
- GI50 [9]: 3.26 µM
- TGI [9]: 10.8 µM
- GI50 [10]: 3.39 µM
- TGI [10]: 11.2 µM
- GI50 [11]: 2.13 µM
- TGI [11]: 5.28 µM
- GI50 [12]: 6.52 µM
- TGI [12]: 19 µM
- GI50 [13]: 2540 nM
- TGI [13]: 10.1 µM
- GI50 [14]: 4.91 µM
- TGI [14]: 16.1 µM
- GI50 [15]: 1.9 µM
- TGI [15]: 3.58 µM
- GI50 [16]: 3.46 µM
- TGI [16]: 6.61 µM
- GI50 [17]: 15.3 µM
- TGI [17]: 28.8 µM
- GI50 [18]: 6.69 µM
- TGI [18]: 19.7 µM
- GI50 [19]: 1.53 µM
- TGI [19]: 2900 nM
- GI50 [20]: 2030 nM
- TGI [20]: 4.37 µM
- GI50 [21]: 5.91 µM
- TGI [21]: 18 µM
- GI50 [22]: 2.19 µM
- TGI [22]: 4.58 µM
- GI50 [23]: 10.4 µM
- TGI [23]: 22.2 µM
- GI50 [24]: 11.9 µM
- TGI [24]: 24.3 µM
- GI50 [25]: 5.63 µM
- TGI [25]: 17.9 µM
- GI50 [26]: 17.5 µM
- TGI [26]: 31.5 µM
- GI50 [27]: 2330 nM
- TGI [27]: 5.37 µM
- GI50 [28]: 3.8 µM
- TGI [28]: 14 µM
- GI50 [29]: 3.39 µM
- TGI [29]: 10.9 µM
- GI50 [30]: 2.26 µM
- TGI [30]: 4.41 µM
- GI50 [31]: 2.33 µM
- TGI [31]: 4.13 µM
- GI50 [32]: 3.66 µM
- TGI [32]: 13.7 µM
- GI50 [33]: 4.71 µM
- TGI [33]: 15.7 µM
- GI50 [34]: 11.8 µM
- TGI [34]: 24.2 µM
- GI50 [35]: 5.5 µM
- TGI [35]: 17.4 µM
- GI50 [36]: 3.06 µM
- TGI [36]: 10.9 µM
- GI50 [37]: 11.1 µM
- TGI [37]: 23.2 µM
- GI50 [38]: 4.46 µM
- TGI [38]: 15.9 µM
- GI50 [39]: 1690 nM
- TGI [39]: 4.18 µM
- GI50 [40]: 5.65 µM
- TGI [40]: 17.3 µM
- GI50 [41]: 5.81 µM
- TGI [41]: 18.3 µM
- GI50 [42]: 3.61 µM
- TGI [42]: 15 µM
- GI50 [43]: 9.65 µM
- TGI [43]: 21.5 µM
- GI50 [44]: 2310 nM
- TGI [44]: 5.36 µM
- GI50 [45]: 3.65 µM
- TGI [45]: 14 µM
- GI50 [46]: 3.07 µM
- TGI [46]: 10.7 µM
- GI50 [47]: 2990 nM
- TGI [47]: 11 µM
- GI50 [48]: 0.0516 µM
- TGI [48]: 1460 nM
- GI50 [49]: 2.42 µM
- TGI [49]: 6.77 µM
- GI50 [50]: 1.86 µM
- TGI [50]: 3.36 µM
- GI50 [51]: 5.42 µM
- TGI [51]: 18.2 µM
- GI50 [52]: 1.95 µM
- TGI [52]: 8.13 µM
- GI50 [53]: 2.5 µM
- TGI [53]: 4.83 µM
- GI50 [54]: 3.22 µM
- TGI [54]: 9.57 µM
- GI50 [55]: 1850 nM
- TGI [55]: 3.72 µM
- GI50 [56]: 4.91 µM
- TGI [56]: 15.5 µM
- GI50 [57]: 3.82 µM
- TGI [57]: 12.8 µM
- GI50 [58]: 4.21 µM
- TGI [58]: 15.3 µM

Structure (SMILES): Cn1cc(-c2ccc(=O)n(Cc3cccc(-c4ncc(OCCN5CCOCC5)cn4)c3)n2)cn1
- GI50 [1]: 35.8 µM
- TGI [1]: 94.6 µM
- GI50 [2]: > 100 µM
- TGI [2]: > 100 µM
- GI50 [3]: > 100000 nM
- TGI [3]: > 100 µM
- GI50 [4]: 28.9 µM
- TGI [4]: > 100 µM
- GI50 [6]: 98.9 µM
- TGI [6]: > 100 µM
- GI50 [7]: 16.5 µM
- TGI [7]: 36.8 µM
- GI50 [8]: > 100 µM
- TGI [8]: > 100 µM
- GI50 [59]: > 100 µM
- TGI [59]: > 100 µM
- GI50 [9]: > 100 µM
- TGI [9]: > 100 µM
- GI50 [10]: > 100 µM
- TGI [10]: > 100 µM
- GI50 [11]: 56.6 µM
- TGI [11]: > 100 µM
- GI50 [12]: 64.2 µM
- TGI [12]: > 100 µM
- GI50 [13]: > 100000 nM
- TGI [13]: > 100 µM
- GI50 [14]: 67.8 µM
- TGI [14]: > 100 µM
- GI50 [15]: 37.6 µM
- TGI [15]: > 100 µM
- GI50 [16]: 17.7 µM
- TGI [16]: 54.6 µM
- GI50 [17]: > 100 µM
- TGI [17]: > 100 µM
- GI50 [18]: 78.3 µM
- TGI [18]: > 100 µM
- GI50 [19]: 55.5 µM
- TGI [19]: > 100000 nM
- GI50 [20]: > 100000 nM
- TGI [20]: > 100 µM
- GI50 [21]: > 100 µM
- TGI [21]: > 100 µM
- GI50 [22]: 97.8 µM
- TGI [22]: > 100 µM
- GI50 [23]: 39.5 µM
- TGI [23]: > 100 µM
- GI50 [24]: > 100 µM
- TGI [24]: > 100 µM
- GI50 [25]: 62.6 µM
- TGI [25]: > 100 µM
- GI50 [26]: 32.9 µM
- TGI [26]: > 100 µM
- GI50 [27]: > 100000 nM
- TGI [27]: > 100 µM
- GI50 [28]: > 100 µM
- TGI [28]: > 100 µM
- GI50 [29]: 72 µM
- TGI [29]: > 100 µM
- GI50 [30]: 24.9 µM
- TGI [30]: > 100 µM
- GI50 [31]: 21.6 µM
- TGI [31]: 57.4 µM
- GI50 [60]: 75.5 µM
- TGI [60]: > 100 µM
- GI50 [32]: > 100 µM
- TGI [32]: > 100 µM
- GI50 [33]: > 100 µM
- TGI [33]: > 100 µM
- GI50 [34]: > 100 µM
- TGI [34]: > 100 µM
- GI50 [35]: > 100 µM
- TGI [35]: > 100 µM
- GI50 [36]: 48.6 µM
- TGI [36]: > 100 µM
- GI50 [37]: 18.3 µM
- TGI [37]: 72.2 µM
- GI50 [38]: > 100 µM
- TGI [38]: > 100 µM
- GI50 [39]: > 100000 nM
- TGI [39]: > 100 µM
- GI50 [40]: 23.7 µM
- TGI [40]: 98.6 µM
- GI50 [41]: > 100 µM
- TGI [41]: > 100 µM
- GI50 [42]: > 100 µM
- TGI [42]: > 100 µM
- GI50 [43]: 61.8 µM
- TGI [43]: > 100 µM
- GI50 [44]: > 100000 nM
- TGI [44]: > 100 µM
- GI50 [45]: 82.5 µM
- TGI [45]: > 100 µM
- GI50 [46]: > 100 µM
- TGI [46]: > 100 µM
- GI50 [47]: > 100000 nM
- TGI [47]: > 100 µM
- GI50 [48]: 66.1 µM
- TGI [48]: > 100000 nM
- GI50 [49]: 14.5 µM
- TGI [49]: > 100 µM
- GI50 [50]: 18.6 µM
- TGI [50]: 37.1 µM
- GI50 [51]: > 100 µM
- TGI [51]: > 100 µM
- GI50 [52]: 33.8 µM
- TGI [52]: > 100 µM
- GI50 [53]: 35.1 µM
- TGI [53]: > 100 µM
- GI50 [54]: > 100 µM
- TGI [54]: > 100 µM
- GI50 [55]: > 100000 nM
- TGI [55]: > 100 µM
- GI50 [56]: 71.2 µM
- TGI [56]: > 100 µM
- GI50 [57]: > 100 µM
- TGI [57]: > 100 µM
- GI50 [58]: > 100 µM
- TGI [58]: > 100 µM
